Patent publication US20100240598A1, “PEPTIDES AND PEPTIDE MIMETICS TO INHIBIT THE ONSET AND/OR PROGRESSION OF FIBROTIC AND/OR PRE-FIBROTIC PATHOLOGIES” (THE REGENTS OF THE UNIVERSITY OF CALIFORNIA, priority 2009, published 2010)
Entries after “also recorded” stand apart in the source; their conditions may differ. Like-named read-outs stand apart in the source and are kept apart here.

Columns and labels:
[1] = tested on: mice fed an atherogenic diet; conditions: 20 μg daily; cited from earlier work
ApoE null mice [2] = assay: HDL Inflammatory Index after D-4F or Reverse D-4F by stomach tube; assay type: in vivo; conditions: 0, 3, 6, 12 or 25 micrograms by stomach tube, blood 7 hours later
Method: Female apoE null mice were administered by stomach tube 0, 3, 6, 12, or 25 micrograms of D-4F or Reverse D-4F in 100 microliters of water. Blood was obtained 7 hours later and the plasma was fractionated by FPLC. A standard control human LDL was added to human artery wall cells at a concentration of 100 micrograms of LDL-cholesterol/mL (LDL). The resulting monocyte chemotactic activity was normalized to 1.0. The same LDL at the same concentration was added to the human artery wall cells together with HDL at 50 micrograms HDL-cholesterol/mL from a normal human (hHDL) or from the apoE null mice that received the dose of D-4F or Reverse D-4F shown on the X-axis. The resulting monocyte chemotactic activity was normalized to that of the LDL added without HDL. The resulting value is the HDL Inflammatory Index. The results shown are the Mean±S.D. for the data from three separate experiments.

[3] = Association with pre-beta HDL/HDL and clearance from the circulation after an oral dose
ApoE null mice [4] = assay: HDL function after D-4F and/or statin in drinking water for 24 hours; assay type: in vivo
human LDL = assay: Treating human LDL in vitro, removal of seeding molecules; assay type: biochemical
Excerpt: (§1) We discovered that normal HDL inhibits three steps in the formation of mildly oxidized LDL. […] These seeding molecules were required for cocultures of human artery wall cells to be able to oxidize LDL and for the LDL to induce the artery wall cells to produce monocyte chemotactic activity.

mice = assay: LDL oxidation resistance after injection of apo A-I into mice; assay type: in vivo
Excerpt: as §1

human volunteers = assay: LDL oxidation resistance after infusion of apo A-I into humans; assay type: in vivo
Excerpt: as §1

LDL receptor null mice = assay: HDL protective capacity in LDL receptor null mice given peptide in drinking water; assay type: in vivo; conditions: 0.25 or 0.5 mg per ml drinking water, 24 or 48 hrs; mouse HDL at 100 μg/ml
Method: D-4F designated as F, or the apoJ peptide made from D amino acids (D-J336, designated as J) was added to the drinking water of LDL receptor null mice (4 per group) at 0.25 or 0.5 mg per ml of drinking water. After 24- or 48-hrs blood was collected from the mice and their HDL was isolated and tested for its ability to protect against LDL-induced monocyte chemotactic activity. Assay controls included culture wells that received no lipoproteins (no addition), or control human LDL alone (designated as LDL, 200 μg cholesterol/ml), or control LDL+control human HDL (designated as +HDL, 350 μg HDL cholesterol). For testing the mouse HDL, the control LDL was added together with mouse HDL (+F HDL or +J HDL) to artery wall cell cultures. The mouse HDL was added at 100 μg cholesterol/ml respectively.

ApoE null mice [5] = assay: Protection against LDL-induced monocyte chemotactic activity by HDL from apo E null mice given oral peptides; assay type: in vivo; conditions: for activity of murine HDL against LDL-induced monocyte chemotactic activity: drinking water, 24 hrs, murine HDL at 100 μg/ml
Method: After 24 hrs blood was collected, plasma fractionated by FPLC and fractions containing LDL (designated as mLDL for murine LDL) and fractions containing HDL (designated as mHDL) were separately pooled and HDL protective capacity against LDL oxidation as determined by LDL-induced monocyte chemotactic activity was determined. For the assay controls the culture wells received no lipoproteins (no additions), mLDL alone (at 200 μg cholesterol/ml), or mLDL+standard normal human HDL (designated as Cont. h HDL, at 350 μg HDL cholesterol/ml).
For testing the murine HDL, mLDL together with murine HDL (+F mHDL or +J mHDL) were added to artery wall cell cultures. […] The murine HDL was used at 100 μg cholesterol/ml.

ApoE null mice [6] = assay: Trabecular bone mineral density after D-4F in drinking water; assay type: in vivo; conditions: drinking water for 6 weeks
Obese Zucker rats = assay: Plasma glucose and lipid hydroperoxides in obese Zucker rats given D-4F; assay type: in vivo; conditions: 5.0 mg/kg/day intraperitoneal, 10 days, rats 26 weeks of age
Method: Obese Zucker rats 26 weeks of age were bled and then treated with daily intraperitoneal injections of D-4F (5.0 mg/kg/day). After 10 days the rats were bled again plasma glucose and lipid hydroperoxides (LOOH) were determined. *p=0.027; ** p=0.0017.

ApoE null mice [7] = assay: HDL and pre-beta HDL inhibition of LDL-induced monocyte chemotaxis after feeding solution-phase synthesized D-4F; assay type: in vivo; conditions: 5 micrograms fed, bled twelve hours after feeding was started
Excerpt: ApoE null mice were fed 5 micrograms of the D-4F synthesized as described above (Frgmnt) or the mice were given the same amount of mouse chow without D-4F (Chow). Twelve hours after the feeding was started, the mice were bled and their plasma was fractionated on FPLC.

[8] = mouse, in vivo, po
[9] = tested on: Human aortic endothelial cells; assay: Prevention of LDL-induced monocyte chemotactic activity in vitro, co-incubation; assay type: cell-based; conditions: co-incubation with control human LDL 200 μg protein/ml, overnight
Method: FIG. 1 illustrates a comparison of the effect of […] et al. (2002) Circulation, 105: 290-292) with the effect of an apoJ peptide made from D amino acids (D-J336, […], SEQ ID NO:999)) on the prevention of LDL-induced monocyte chemotactic activity in vitro in a co-incubation. […] D-J336 or D-4F was added to other wells in a concentration range as indicated plus control human LDL (200 μg protein/ml). Following overnight incubation, the supernatants were assayed for monocyte chemotactic activity.

[10] = tested on: Human aortic endothelial cells; assay: Prevention of LDL-induced monocyte chemotactic activity by pre-treatment (pre-incubation) of artery wall cells; assay type: cell-based; conditions: 6 hrs pre-incubation, then control human LDL 200 μg protein/ml
Method: FIG. 2 illustrates a comparison of the effect of D-4F with the effect of D-J336 on the prevention of LDL induced monocyte chemotactic activity in a pre-incubation. Human aortic endothelial cells were pre-incubated with D-J336 or D-4F at 4, 2, and 1 μg/ml for DJ336 or 100, 50, 25, and 12.5 μg/ml for D-4F for 6 hrs. The cultures were then washed and were incubated with medium alone (no addition), or with control human LDL (200 μg protein/ml), or with control human LDL+control human HDL (350 μg HDL protein/ml) as assay controls. The wells that were pre-treated with peptides received the control human LDL at 200 μg protein/ml. Following overnight incubation, the supernatants were assayed for monocyte chemotactic activity.

ApoE null mice [11] = assay: Ability of LDL from apoE null mice given oral peptides to induce monocyte chemotactic activity (LDL susceptibility to oxidation); assay type: in vivo; conditions: added to the drinking water, 24 hrs
Method: FIG. 5 illustrates the effect of oral apo A-1 peptide mimetic and apoJ peptide on LDL susceptibility to oxidation. […] After 24 hrs blood was collected from the mice shown in FIG. 4, plasma fractionated by FPLC and fractions containing LDL (designated as mLDL for murine LDL) were pooled and LDL susceptibility to oxidation as determined by induction of monocyte chemotactic activity was determined. For the assay controls the culture wells received no lipoproteins (no additions), mLDL alone (at 200 μg cholesterol/ml), or mLDL+standard normal human HDL (designated as Cont. h HDL, 350 μg HDL cholesterol).
Murine LDL, mLDL, from mice that received the D-4F (F mLDL) or those that received the apoJ peptide (J mLDL) were added to artery wall cell cultures.

ApoE null mice [12] = assay: HDL protective capacity against PAPC oxidation by HPODE, HDL from apo E null mice given oral peptides; assay type: in vivo; conditions: added to the drinking water, 24 hrs; murine HDL 100 μg cholesterol/ml
Method: After 24 hrs blood was collected, plasma fractionated by FPLC and fractions containing HDL (designated as mHDL) were pooled and HDL protective capacity against PAPC oxidation as determined by the induction of monocyte chemotactic activity was determined. For the assay controls the culture wells received no lipoproteins (no additions), the phospholipid PAPC at 20 μg/ml+HPODE, at 1.0 μg/ml, or PAPC+HPODE plus standard normal human HDL (at 350 μg HDL cholesterol/ml and designated as +Cont. h HDL).
For testing the murine HDL, PAPC+HPODE together with murine HDL (+F mHDL or +J mHDL) were added to artery wall cell cultures. […] The murine HDL was used at 100 μg cholesterol/ml.

PON1 = conditions: added to the drinking water, 24 hrs
Method: After 24 hrs blood was collected and plasma was assayed for PON1 activity.

Compound: Ac-D-W-L-K-A-F-Y-D-K-V-F-E-K-F-K-E-F-F-NH2 (Ac-DWLKAFYDKVFEKFKEFF-NH2) [Peptide 5F]
- LDL oxidation and induction of monocyte chemotactic activity, PBS-injected versus peptide-injected mice [1]: more readily oxidized and more readily induced monocyte chemotactic activity

Compound: Ac-FAEKFKEAVKDYFAKFWD-NH2 [Reverse D-4F]
- biological activity (HDL Inflammatory Index), D-4F versus Reverse D-4F (ApoE null mice [2]): not significantly different

Compound: Ac-L V G R Q L E E F L-NH2 [D-[113-122]apoJ]
- association with pre-beta HDL and HDL ([3]; after an oral dose): slowly associates with pre-beta HDL and to a lesser extent with HDL
- time remaining associated with HDL fractions ([3]; mouse, in vivo): at least 36 hours

Compound: CC(C)c1c(C(=O)Nc2ccccc2)c(-c2ccccc2)c(-c2ccc(F)cc2)n1CC[C@@H](O)C[C@@H](O)CC(=O)O [atorvastatin, reference compound]
- HDL function, statin alone (ApoE null mice [4]; 0.05 mg/ml in drinking water for 24 hours): did not improve HDL function

Compound: apo A-I: the major protein of HDL, apolipoprotein A-I
- effect on seeding molecules (HPODE, HPETE) of human LDL (human LDL): removed seeding molecules from the LDL
- oxidation of LDL isolated after injection, by human artery wall cells (mice): resistant to oxidation by human artery wall cells
- oxidation of LDL isolated after infusion, by human artery wall cells (human volunteers): resistant to oxidation by human artery wall cells

Compound: Ac-DWFKAFYDKVAEKFKEAF-NH2 [Peptide D-4F]
- activity of mouse HDL in preventing control LDL from inducing monocyte chemotactic activity (LDL receptor null mice): as active as 350 μg/ml of control human HDL
- activity of murine HDL against LDL-induced monocyte chemotactic activity (ApoE null mice [5]): as active as 350 μg/ml of normal human HDL
- biological activity (HDL Inflammatory Index), D-4F versus Reverse D-4F (ApoE null mice [2]): not significantly different
- HDL function, D-4F alone (ApoE null mice [4]; 1 μg/ml in drinking water for 24 hours): did not significantly improve HDL function; also recorded: no effect on HDL function
- HDL function, D-4F together with statin (ApoE null mice [4]; D-4F 1 μg/ml together with 0.05 mg/ml of atorvastatin or pravastatin in drinking water): significant improvement in HDL function
- anti-inflammatory activity of apoE null HDL compared with normal human HDL, D-4F together with statin (ApoE null mice [4]; mouse HDL at 50 μg/ml of HDL-cholesterol, HPODE oxidizing PAPC in cocultures of human artery wall cells): as anti-inflammatory as 350 μg/ml of normal human HDL; also recorded: as effective as normal human HDL at 350 μg/ml of HDL-cholesterol
- trabecular bone mineral density (ApoE null mice [6]): dramatically increased
- symptoms of diabetes (blood glucose, lipid hydroperoxides) (Obese Zucker rats): effective in mitigating symptoms of diabetes
- biological activity in producing HDL and pre-beta HDL that inhibit LDL-induced monocyte chemotaxis (ApoE null mice [7]): very biologically active
- association with pre-beta HDL and HDL [8]: rapidly associates with pre-beta HDL and HDL
- detectability in the circulation [8]: essentially non-detectable

Compound: Ac-LLEQLNEQFNWVSRLANLTQGE-NH2 [D-J336]
- in vitro concentration that prevents LDL-induced monocyte chemotactic activity, relative to the concentration required for D-4F [9]: 10 to 25 times less
- potency in preventing LDL oxidation by artery wall cells in vitro relative to D-4F [10]: 10-25 times more potent
- activity of mouse HDL in preventing control LDL from inducing monocyte chemotactic activity (LDL receptor null mice): as active as 350 μg/ml of control human HDL
- potency in enhancing HDL protective capacity compared with D-4F (ApoE null mice [5]; added to the drinking water, apo E null mice): as potent as D-4F
- activity of murine HDL against LDL-induced monocyte chemotactic activity (ApoE null mice [5]): as active as 350 μg/ml of normal human HDL
- potency in rendering LDL resistant to oxidation by human artery wall cells compared with D-4F (ApoE null mice [11]): slightly more potent than D-4F
- potency in causing HDL to inhibit oxidation of PAPC by HPODE compared with D-4F (ApoE null mice [12]): as potent as D-4F
- potency in increasing paraoxonase activity compared with D-4F (PON1): at least as potent as D-4F
